One compound from publication PMC7883873, “Discovery of New Catalytic Topoisomerase II Inhibitors for Anticancer Therapeutics” (Frontiers in Oncology, 2021) can be followed below.

One test addresses T1, TOP2A (431–1193) (Homo sapiens, UniProt P11388).
T1 construct: was incorporated with TOP2A (431–1193); made in house; host or cells: Escherichia coli BL21 co-expressing biotin ligase
Kind of test: Electrophoresis mobility shift assay (EMSA). The format is binding. As to conditions: 200 µM; 30 µM protein, 300 nM 5ZRF oligo. The procedure: EMSA followed the standard protocols as we and others described with minor modifications ([54]–[56]). The double-strand DNA oligo, 5ZRF (AGCCGAGCTGCAGCTCGGCT labeled by IRDye700) was purchased from IDT (Coralville, USA). Human TOP2 (431–1193), TOP2A (TopoGEN) or TOP2B (Inspiralis) proteins were incubated with 300 nM of 5ZRF oligo in a standard 20 µl EMSA reaction in a reaction buffer containing 20 mM HEPES-NaOH, pH 7.4, 2 mM DTT, 3 mM MgCl2, 0.05% NP-40, protease inhibitors, and 0.1 µg poly[dI:dC]. After incubation for 30 min at 37C, reactions were loaded onto 4% non-denatured polyacrylamide gel in 0.5× TBE buffer. The DNA oligo bands were visualized by using the Li-Cor Odyssey 9120 Infrared Imaging System.

Test [1] relates to HeLa cells. Kind of test: FACS cell cycle assay. The format is cell-based. As to conditions: 20 µM, 48 h. The protocol:
(§1) Cell proliferation rates were measured by using the CellTitre 96 AqueousOne kit (Promega) and bromodeoxyuridine (BrdU) assay kit (Millipore) according to the manufacturer’s protocol as we have described ([51]). Cytotoxicity was evaluated by using the commercial kit (CAT# 8078, ThermoFisher). Culture media was collected and used to measure lactate dehydrogenase (LDH) levels by a colorimetric method following the manufacture’s protocol (ThermoFisher). Cell cycling was assessed by using BrdU incorporation into S-phase DNA by using the APC BrdU flow kit (BD Pharmingen; Franklin Lakes, New Jersey) according to the manufacturer’s protocol. 1 mM of BrdU was added to cells and incubated for 6 h. Cells were incubated with anti-BrdU antibody and stained with 7-AAD before processing the cells for flow cytometry ([52]). Immunoblotting assays followed the standard protocol as we have reported ([51]–[53]).

Test [2] has as its system HeLa cells. Kind of test: Confocal fluorescence microscopy. Format: cell-based. As to conditions: 20 µM, 48 h. The protocol:
Cells were fixed with 4% paraformaldehyde, treated in 0.25% Triton X-100 for 15 min, incubated with F-actin conjugated to Phalloidin-iFluor 488 (Abcam; UK), and mounted with DAPI staining mount (Vector Labs; Burlingame, USA). Cell images were captured by confocal microscopy at 63× magnification (Zeiss; Germany) ([51], [53]).

Another test concerns K562 xenografts. The experiment in a line: K562 xenografts, intra-tumor polymeric paste. The format is in vivo, nude mice (Nu/Nu). The conditions noted are these: single 30 µl paste, 1% T60 or T633, 0.3% etoposide. The procedure: The polymeric paste was prepared with 50% poly-DL-lactide-coglycolide (PLGA) and 50% PEG 300 (w/w) as we have reported ([57]). […] The density of the paste was determined to be 1.2 g/ml ( ± 3%). One million K562 cells were inoculated subcutaneously in bilateral flanks of nude mice (Nu/Nu). […] Tumor volumes were measured every three days and were calculated by length × width × depth × 0.5236. Mice were euthanized when tumor volumes reached 15% of body weight or weight loss >20% occurred. The remaining mice were euthanized after the control group was euthanized. All animal procedures were under the guidelines of the Canadian Council on Animal Care and were approved by the UBC Animal Care Committee (# A19-0256).

The test system of another test is AR. Kind of test: Probasin- and PSA-luciferase reporter in 293T cells. The format is cell-based. As to conditions: 0-20 µM. A general note: In a reporter assay the amount or activity of a reporter protein is the signal.
The test system of test [3] is AR-v7. Described as above. The format is cell-based. As to conditions: 0-20 µM.
The test system of the next test is AR full-length (AR-fl). The experiment in a line: Immunoblotting of AR protein levels. The conditions noted are these: LNCaP and LNCaP95 cells, 0-20 µM. Format: cell-based. The protocol: as §1
In general terms: A western blot detects proteins with antibodies after separation by electrophoresis.

For test [4], the system named is AR-v7. The experiment in a line: Immunoblotting of AR protein levels. The format is cell-based. The conditions noted are these: LNCaP and LNCaP95 cells, 0-20 µM. The procedure:
as §1

For test [5], the target named is T2, TOP2B (Homo sapiens, UniProt Q02880). The experiment in a line: DNA relaxation assay (supercoiled pHOT-1 plasmid). Format: biochemical. On the set-up: full-length human TOP2A and TOP2B protein (TopoGEN and Inspiralis respectively); purchased Inspiralis HTB205. As to conditions: densitometry of SC bands; read-out: IC50, inhibition of TOP2B plasmid DNA relaxation. The protocol:
The human TOP2A and TOP2B were used to perform DNA relaxation assays. […] The reaction was incubated at 37C for 2 h and stopped by adding 2 µl of 10% SDS and 1 µl of 250 mM of EDTA, followed by the addition of 50 µg/ml of proteinase K at 45 C for 1 h. The reaction was then resolved by electrophoresis on a 1% agarose gel at 80 V and stained with 0.5 µg/ml ethidium bromide for 15 min. DNA bands were visualized using a gel imager (Gel Doc™ EZ System) and quantified using the Image Studio™ Lite Quantification Software.
Target sequence in this assay (Q02880 whole entry): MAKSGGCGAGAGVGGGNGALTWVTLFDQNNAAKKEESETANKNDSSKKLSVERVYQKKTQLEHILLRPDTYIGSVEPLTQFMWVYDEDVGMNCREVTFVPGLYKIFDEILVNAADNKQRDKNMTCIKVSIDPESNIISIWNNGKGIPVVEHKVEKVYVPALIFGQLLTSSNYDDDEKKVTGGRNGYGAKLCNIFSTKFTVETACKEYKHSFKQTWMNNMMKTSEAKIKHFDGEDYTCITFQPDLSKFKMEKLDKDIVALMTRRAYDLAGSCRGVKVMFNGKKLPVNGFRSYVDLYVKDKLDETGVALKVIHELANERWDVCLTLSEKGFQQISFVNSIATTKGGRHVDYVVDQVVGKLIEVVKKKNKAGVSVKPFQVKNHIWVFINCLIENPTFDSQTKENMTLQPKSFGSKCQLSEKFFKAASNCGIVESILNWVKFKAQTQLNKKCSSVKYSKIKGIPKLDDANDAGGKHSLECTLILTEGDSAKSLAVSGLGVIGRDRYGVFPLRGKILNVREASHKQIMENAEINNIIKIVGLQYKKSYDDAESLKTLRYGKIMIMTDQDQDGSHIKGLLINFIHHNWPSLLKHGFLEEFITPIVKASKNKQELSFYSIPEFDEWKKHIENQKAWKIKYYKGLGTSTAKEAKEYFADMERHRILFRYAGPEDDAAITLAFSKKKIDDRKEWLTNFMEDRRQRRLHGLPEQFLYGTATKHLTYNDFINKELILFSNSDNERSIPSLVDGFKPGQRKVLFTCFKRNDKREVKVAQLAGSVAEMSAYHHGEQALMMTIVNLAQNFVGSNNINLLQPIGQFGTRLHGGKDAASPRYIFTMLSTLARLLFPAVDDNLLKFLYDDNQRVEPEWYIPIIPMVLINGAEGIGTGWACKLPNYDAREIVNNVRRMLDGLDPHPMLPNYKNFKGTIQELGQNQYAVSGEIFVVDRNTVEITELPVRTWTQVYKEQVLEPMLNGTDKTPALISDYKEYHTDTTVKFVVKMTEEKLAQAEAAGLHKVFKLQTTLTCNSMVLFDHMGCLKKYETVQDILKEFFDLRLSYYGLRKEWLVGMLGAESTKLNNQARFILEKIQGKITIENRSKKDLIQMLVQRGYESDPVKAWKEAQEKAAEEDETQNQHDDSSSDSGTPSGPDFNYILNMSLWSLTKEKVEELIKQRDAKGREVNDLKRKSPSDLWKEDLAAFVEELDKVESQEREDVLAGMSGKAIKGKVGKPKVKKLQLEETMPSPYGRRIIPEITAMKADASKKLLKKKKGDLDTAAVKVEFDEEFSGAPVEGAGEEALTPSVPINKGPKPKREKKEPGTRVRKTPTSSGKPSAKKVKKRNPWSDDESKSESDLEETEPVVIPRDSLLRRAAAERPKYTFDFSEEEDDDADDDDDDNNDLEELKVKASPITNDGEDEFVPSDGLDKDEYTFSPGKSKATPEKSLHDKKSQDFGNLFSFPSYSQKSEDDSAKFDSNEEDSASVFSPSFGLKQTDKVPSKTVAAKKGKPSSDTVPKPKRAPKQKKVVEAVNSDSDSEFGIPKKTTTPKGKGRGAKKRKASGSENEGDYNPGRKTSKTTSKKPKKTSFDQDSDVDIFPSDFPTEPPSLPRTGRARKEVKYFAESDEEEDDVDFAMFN

Test [6] has as its target T2, TOP2B. Kind of test: Chromatin fractionation assay. Further details: endogenous in cells; host or cells: K562 (the thermal shift text says HeLa, the legend says K562); K562 for chromatin fractionation. As to conditions: K562 cells, 0, 1, 20 µM, 24 hours. Format: cell-based. The procedure:
In the thermal shift assays, cells were treated with vehicle or T60 for 1 h and split into equal aliquots to be heated at 37 to 46°. Protein lyses were collected to perform immunoblotting assays with TOP2 antibodies (Abcam 12318, Santa Cruz sc-13059 & sc-365071). Our chromatin fractionation assays followed the protocol as previously described (Méndez & Stillman, 2000; Wysocka, Reilly, & Herr, 2001). Briefly, K562 cells (4 × 10 ([7]) cells/ml) were collected and re-suspended in buffer A (10 mM HEPES [pH 7.9], 10 mM KCl, 1.5 mM MgCl2, 0.34 M sucrose, 10% glycerol, 1 mM DTT, and protease inhibitor cocktail), before Triton X-100 was added to final concentration at 0.1%. Cells were then incubated on ice for 10 min, and nuclei were collected by centrifugation at speed of 1,300g for 4 min at 4°C. The nuclei were then washed once with buffer A and then incubated with buffer B (3 mM EDTA, 0.2 mM EGTA, 1 mM DTT, and protease inhibitor cocktail [ROCHE]) for 30 min in ice. Insoluble chromatin was collected by centrifugation at 1,700g for 4 min at 4°C, and washed once with buffer B. Chromatin associated proteins were extracted by incubation with Buffer C [500 mM Tris-HCl (pH 6.8), 500 mM NaCl, and protease inhibitor cocktail (ROCHE)] followed by brief sonication. The supernatant was collected to perform immunoblotting assays with TOP2 antibodies as we have described ([51]–[53]).
Target sequence in this assay (Q02880 2-1626 limits assumed): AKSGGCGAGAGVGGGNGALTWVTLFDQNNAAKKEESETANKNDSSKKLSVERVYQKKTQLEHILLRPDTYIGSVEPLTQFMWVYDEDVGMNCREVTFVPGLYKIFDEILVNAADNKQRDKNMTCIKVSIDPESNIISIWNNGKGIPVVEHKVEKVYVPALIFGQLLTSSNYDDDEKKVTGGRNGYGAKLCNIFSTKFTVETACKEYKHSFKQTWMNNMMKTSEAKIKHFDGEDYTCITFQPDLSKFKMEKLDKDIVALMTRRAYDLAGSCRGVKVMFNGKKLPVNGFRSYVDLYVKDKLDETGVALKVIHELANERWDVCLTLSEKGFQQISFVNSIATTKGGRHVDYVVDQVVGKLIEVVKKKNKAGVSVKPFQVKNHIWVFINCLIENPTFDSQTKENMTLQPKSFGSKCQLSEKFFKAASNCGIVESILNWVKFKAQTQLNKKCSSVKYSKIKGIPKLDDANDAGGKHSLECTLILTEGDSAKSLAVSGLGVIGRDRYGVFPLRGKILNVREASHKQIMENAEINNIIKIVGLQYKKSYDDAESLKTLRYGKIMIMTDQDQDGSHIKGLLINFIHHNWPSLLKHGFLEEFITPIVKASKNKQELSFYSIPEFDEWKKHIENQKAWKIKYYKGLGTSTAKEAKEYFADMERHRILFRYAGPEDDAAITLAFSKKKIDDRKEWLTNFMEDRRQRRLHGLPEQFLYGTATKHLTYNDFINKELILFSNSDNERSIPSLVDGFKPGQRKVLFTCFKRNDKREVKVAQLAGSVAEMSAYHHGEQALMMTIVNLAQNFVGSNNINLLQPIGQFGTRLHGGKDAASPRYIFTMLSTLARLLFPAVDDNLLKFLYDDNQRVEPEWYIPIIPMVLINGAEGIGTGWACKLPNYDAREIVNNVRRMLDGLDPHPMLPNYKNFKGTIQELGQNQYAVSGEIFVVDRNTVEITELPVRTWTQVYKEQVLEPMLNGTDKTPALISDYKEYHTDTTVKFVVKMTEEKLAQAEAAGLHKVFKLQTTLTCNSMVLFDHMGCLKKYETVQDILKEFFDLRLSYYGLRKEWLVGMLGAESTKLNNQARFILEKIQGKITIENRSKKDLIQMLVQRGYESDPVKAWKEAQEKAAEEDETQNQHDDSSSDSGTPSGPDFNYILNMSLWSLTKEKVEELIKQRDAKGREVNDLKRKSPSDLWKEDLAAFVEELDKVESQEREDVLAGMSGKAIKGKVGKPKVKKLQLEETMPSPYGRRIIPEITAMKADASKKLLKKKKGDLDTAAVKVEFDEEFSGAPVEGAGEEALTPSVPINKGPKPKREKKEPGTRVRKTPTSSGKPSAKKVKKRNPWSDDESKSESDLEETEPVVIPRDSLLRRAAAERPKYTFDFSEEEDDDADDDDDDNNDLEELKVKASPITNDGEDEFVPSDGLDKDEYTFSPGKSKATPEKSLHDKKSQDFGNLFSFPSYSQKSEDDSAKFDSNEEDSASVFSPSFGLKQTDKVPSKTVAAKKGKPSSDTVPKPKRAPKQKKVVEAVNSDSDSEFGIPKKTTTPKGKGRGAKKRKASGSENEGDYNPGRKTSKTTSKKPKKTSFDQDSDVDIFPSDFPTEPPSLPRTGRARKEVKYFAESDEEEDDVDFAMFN

T1 sequence (P11388 431-1193): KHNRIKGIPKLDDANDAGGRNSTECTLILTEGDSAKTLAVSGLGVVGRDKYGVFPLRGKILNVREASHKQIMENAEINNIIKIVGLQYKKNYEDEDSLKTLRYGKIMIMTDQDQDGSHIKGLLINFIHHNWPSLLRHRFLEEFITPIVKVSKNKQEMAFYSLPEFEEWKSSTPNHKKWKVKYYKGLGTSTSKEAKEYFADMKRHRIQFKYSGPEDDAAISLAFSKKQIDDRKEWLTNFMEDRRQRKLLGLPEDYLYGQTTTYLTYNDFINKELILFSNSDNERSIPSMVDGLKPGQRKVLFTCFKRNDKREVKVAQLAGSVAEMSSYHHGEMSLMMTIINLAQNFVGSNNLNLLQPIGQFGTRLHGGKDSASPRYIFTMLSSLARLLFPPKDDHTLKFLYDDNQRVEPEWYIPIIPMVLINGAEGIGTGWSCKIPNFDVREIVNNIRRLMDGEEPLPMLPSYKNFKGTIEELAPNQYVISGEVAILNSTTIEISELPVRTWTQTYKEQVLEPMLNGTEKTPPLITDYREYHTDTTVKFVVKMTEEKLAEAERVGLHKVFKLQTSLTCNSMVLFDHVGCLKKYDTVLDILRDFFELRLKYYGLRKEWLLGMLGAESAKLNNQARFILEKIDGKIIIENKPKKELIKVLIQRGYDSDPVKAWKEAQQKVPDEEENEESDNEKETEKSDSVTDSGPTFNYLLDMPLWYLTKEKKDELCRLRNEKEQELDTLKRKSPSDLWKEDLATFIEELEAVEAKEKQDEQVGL

For the compound `O=C(Nc1ccc(Nc2ccccc2)cc1)c1ccc[nH]c1=S` [T60], the “Abolishment of TOP2A (431–1193)-induced upshifted DNA band” value on TOP2A (431–1193) is “abolished”. Besides, in the test with HeLa cells [1], the Cell cycle distribution entry is “reduced at the G1 phase, but accumulated at S and G2/M phases”. Further, the Cell morphology result in the test with HeLa cells [2] is “enlarged cell bodies and nuclei”. The “Tumor growth at the end of two weeks” value with K562 xenografts was “strongly inhibit tumor growth comparable to etoposide”. For the same compound, in the test with AR, the “Luciferase activities driven by probasin and PSA promoters, AR” value is reported as “inhibited luciferase activities”. In the test with AR-v7 [3], the “Luciferase activities driven by probasin and PSA promoters, AR-v7” value is listed as “inhibited luciferase activities”. In the test on AR full-length (AR-fl), the “Protein levels of AR full-length” value is “inhibited the protein levels”. In addition, the “Protein levels of AR-v7” value in the test on AR-v7 [4] is “inhibited the protein levels”. Moreover, at TOP2B [5], the half-maximal inhibitory concentration (IC50) is ~8.9 µM. The “TOP2B association with chromatin” value at TOP2B [6] is given as “reduced”.

As a reminder, the IC50 is the concentration that inhibits the measured activity by half.
